According to patent US8143394B2, “Pyrido(3,2-d)pyrimidines useful for treating viral infections” (Gilead Sciences, Inc., priority 2006, dated 2012):
Where two headings read alike, the source gives them in different places.

What was measured:
Huh-7 HCV replicon cells = assay: CC50 assay (CellTiter-Glo) in Huh-7 HCV replicon cells; type: cell-based, human; conditions: 3 days, 50% cytostatic concentration
Summary of the method: (§1)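 Huh-7 cells bearing HCV replicon, 6000 per well, exposed 3 days at 37 °C to 3-fold compound dilutions (0.5% DMSO final where used). EC50 from luciferase luminescence after lysis; CC50 (50% growth inhibition) from CellTiter-Glo luminescence in parallel plates.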

HCV replicon = assay: Anti-HCV replicon assay (EC50, luciferase readout); type: cell-based; conditions: human hepatoma Huh-7 cell line harbouring a HCV replicon, 3 days, luciferase, read-out: EC50
Summary of the method: as §1

[1] = CC50 assay (CellTiter-Glo) in Huh-7 HCV replicon cells; type: cell-based, human; conditions: human, 50% cytostatic concentration
Summary of the method: as §1

Compound | CC50 (Huh-7 HCV replicon cells) | EC50 (HCV replicon) | CC50 at 3 days [1] | EC50 (HCV replicon; Hepatitis C virus, 72 h)
4-ethoxy-6-(5-methyl-4H-[1,2,4]triazol-3-yl)-pyrido[3,2-d]pyrimidin-2-ylamine [Example 88] | 10000 to 20000 nM | 300 to 1000 nM |  | 
CCOc1nc(N)nc2ccc(-c3ccc(-c4nnc(C)o4)cc3)nc12 [Example 85, 4-Ethoxy-6-[4-(5-methyl-[1,3,4]oxadiazol-2-yl)-phenyl]-pyrido[3,2-d]pyrimidin-2-ylamine] |  |  | > 20000 nM | > 1000 nM
CCOc1nc(N)nc2ccc(-c3ccc(C(=O)Nc4ccc(F)cc4)cc3)nc12 [Example 86, 4-(2-Amino-4-ethoxy-pyrido[3,2-d]pyrimidin-6-yl)-N-(4-fluoro-phenyl)-benzamide] |  |  | > 20000 nM | 300 to 1000 nM
CCOc1nc(N)nc2ccc(-c3ccc(C(=O)Nc4ccccc4)cc3)nc12 [Example 87, 4-(2-Amino-4-ethoxy-pyrido[3,2-d]pyrimidin-6-yl)-N-phenyl-benzamide] |  |  | > 20000 nM | > 1000 nM
CCOc1nc(N)nc2ccc(-c3ccc(C(=O)NC4CC4)s3)nc12 [Example 89, 2-amino-4-ethoxy-6-(2-(N-(cyclopropyl)carbamoyl)-5-thiophenyl)pyrido[3,2-d]pyrimidine] |  |  | > 20000 nM | < 300 nM
